Measurements as given in ChEMBL document CHEMBL1149283, “Design, synthesis and evaluation of a PLG tripeptidomimetic based on a pyridine scaffold” (J Med Chem, 2004).
Where a SMILES comes first, the peptide text is derived from it.

Columns and labels:
Type in all cases: functional, cell-based
Details in all cases: NIH3T3
[1] = biological target: D(2) dopamine receptor (Homo sapiens) (UniProt P14416); experiment: Activity at human dopamine D2 receptor in NIH/3T3 cells assessed as enhancement of NPA-stimulated beta-galactosidase activity at 10 nM after 5 days by R-SAT assay
Chain of D(2) dopamine receptor (Homo sapiens) (P14416 whole entry): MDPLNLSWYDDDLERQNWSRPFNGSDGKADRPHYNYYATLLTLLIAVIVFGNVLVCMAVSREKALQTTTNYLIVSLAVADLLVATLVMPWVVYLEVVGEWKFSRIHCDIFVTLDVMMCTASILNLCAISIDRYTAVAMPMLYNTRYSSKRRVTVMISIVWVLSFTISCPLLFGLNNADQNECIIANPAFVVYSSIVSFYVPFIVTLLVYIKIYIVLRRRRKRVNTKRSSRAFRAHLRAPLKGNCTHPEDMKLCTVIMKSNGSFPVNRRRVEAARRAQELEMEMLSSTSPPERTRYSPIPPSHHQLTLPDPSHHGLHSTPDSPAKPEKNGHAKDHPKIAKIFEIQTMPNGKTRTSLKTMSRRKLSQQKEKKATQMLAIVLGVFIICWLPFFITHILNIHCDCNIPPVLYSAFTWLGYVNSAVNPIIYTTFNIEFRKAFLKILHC

[2] = biological target: D(2) dopamine receptor (Homo sapiens) (UniProt P14416); experiment: Activity at human dopamine D2 receptor in NIH/3T3 cells assessed as enhancement of NPA-stimulated beta-galactosidase activity at 50 nM after 5 days by R-SAT assay
[3] = biological target: D(2) dopamine receptor (Homo sapiens) (UniProt P14416); experiment: Activity at human dopamine D2 receptor in NIH/3T3 cells assessed as enhancement of NPA-stimulated beta-galactosidase activity at 100 nM after 5 days by R-SAT assay

SMILES | Activity [1] [%] | Activity [2] [%] | Activity [3] [%]
CC(C)Cc1c(C(=O)[C@@H]2CCCN2)ccnc1OCC(N)=O | 146 | 135 | 117
CC(C)C[C@H](NC(=O)[C@@H]1CCCN1)C(=O)NCC(N)=O (H-Pro-Leu-Gly-NH2) | 115 | 104 | 98
